This is an account of results in patent publication US7868026B2, “Therapeutic compounds” (Pfizer Inc., priority 2005, dated 2011).

For experiment [1], the target named is T1, CYP3A4 (Homo sapiens, UniProt P08684). Nature of the experiment: Determination of IC50 against CYP3A4 by measurement of inhibition of midazolam metabolism (human liver microsomes, 1-hydroxymidazolam by LC-MS/MS). Particulars: 2 μM midazolam, 0.1 mg/mL human liver microsomes. In kind it is biochemical. Further details: 0.1 mg/mL human liver microsomes. Here is the method:
3. Determination of IC50 Against CYP3A4 by Measurement of Inhibition of Midazolam Metabolism
This assay was performed using a standard 96 well plate design. […] The incubation substrate mix contains 2 μM midazolam, 0.1 mg/mL human liver microsomes, 1 mM NADPH, and potassium phosphate buffer (100 mM, pH 7.4). Quantitation of metabolite peak area ratio against internal standard is determined by LC-MS/MS analysis. The production of 1-hydroxymidazolam from midazolam metabolism is determined after incubation for eight minutes by comparison to a standard curve generated for the metabolite.
Samples were analyzed in the MRM mode using a Sciex API 3000 mass spectrometer (Applied Biosystems, Foster City, Calif.) with a Paradigm MS4 binary pump (Michrom BioResources Inc., Auburn, Calif.) and a LEAP CTC PAL autosampler (LEAP Technologies, Carrboro, N.C.). A Phenomenex Synergi, 4μ, Polar-RP, 10×2.0 mm column (Phenomenex, Torrance, Calif.) was used for separation with a mobile phase composition of: 0.1% formic acid in water (A) and: 0.1% formic acid in methanol (B). The following gradient was used: […]
The sample injection volume was 10 μL and flow was split post-column with 0.4 mL/min going to the mass spectrometer. Analysis was performed using the following API 3000 mass spectrometer settings: […]
(In general: Liver microsomes are a subcellular fraction often used to study metabolism.)

The target of experiment [2] is T1, CYP3A4. In words: Determination of compound Kiapp against recombinant CYP3A4 enzyme (BFC fluorescent substrate). In kind it is biochemical. Here is the method:
1. Determination of compound Kiapp
A determination of the Kiapp of the compounds of the invention against recombinant CYP3A4 enzyme was performed as follows. The assay was performed in a 100 mM sodium phosphate buffer pH 7.0, 5 mM TCEP and containing 2% dimethylformamide (final concentration) upon addition of substrate and inhibitor. A typical reaction for the determination of Kiapp values was carried at room temperature in a solid black Costar u-bottom 96-well polypropylene plate. In each well, recombinant CYP3A4 enzyme (5.5 nM or 8 nM, final concentration depending on the commercial source of the enzyme) was pre-incubated in the presence of the inhibitor for at least 30 minutes in the assay buffer. When pre-incubation was completed (˜30 min), the reaction was initiated by adding NADPH (200 uM, final concentration), and 7-benzyloxy-4-(trifluoromethyl)-coumarin (BFC) (5 uM, final concentration). The oxidation of the coumarin substrate was recorded by a 96-well plate reader POLARstar (BMG LABTECH, Offenburg, Germany).
The initial reaction velocities were measured during the first 5 min of the reaction when the release of the fluorescent product is linear with time, in the absence and in the presence of various concentrations of inhibitors. For non-partial & partial inhibitors, the Kiapp values were determined by using the equation for tight-binding inhibitor developed by Morrison, J F (Morrison J F. Biochim Biophys Acta. 1969, 185: 269-86) and by Szedlaseck S E et al. (Szedlascek, S. E., Ostafe, V., Serban, M., and Vlad, M.O. Biochem. J. 1988, 254:311-312), respectively.
The fluorescent substrate BFC was purchased from Sigma (St Louis, Mo.). Two commercial sources of recombinant enzymes were used in this study: recombinant CYP3A4−b5 enzyme (Baculosomes®) was purchased from Invitrogen (Carlsbad, Calif.) and the recombinant CYP3A4+b5 enzyme (Supersomes®) was purchased from BD Biosciences (Woburn, Mass.).

[3] abbreviates: Baculo. enzyme preparation, read-out: Kiapp (BFC, Baculo.).
Where [4] appears, read: Super. enzyme preparation, read-out: Kiapp (BFC, Super.).

Read-outs that look alike come from different tables or passages of the source.

T1 sequence (P08684 whole entry): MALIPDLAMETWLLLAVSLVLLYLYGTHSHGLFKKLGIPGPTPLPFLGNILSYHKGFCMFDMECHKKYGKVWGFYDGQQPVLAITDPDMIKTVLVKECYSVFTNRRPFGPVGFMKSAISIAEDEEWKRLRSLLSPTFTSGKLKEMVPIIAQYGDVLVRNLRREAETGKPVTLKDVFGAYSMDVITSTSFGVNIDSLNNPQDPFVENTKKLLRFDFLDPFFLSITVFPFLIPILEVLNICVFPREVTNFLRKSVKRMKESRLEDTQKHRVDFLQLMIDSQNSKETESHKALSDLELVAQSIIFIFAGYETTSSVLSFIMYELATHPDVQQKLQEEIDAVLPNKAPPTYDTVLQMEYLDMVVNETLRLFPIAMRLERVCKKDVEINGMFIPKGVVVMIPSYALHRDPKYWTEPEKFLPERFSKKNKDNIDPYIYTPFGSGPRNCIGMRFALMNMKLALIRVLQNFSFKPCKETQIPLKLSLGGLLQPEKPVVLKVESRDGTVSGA

Take `Cc1cncc(NS(=O)(=O)c2ccccc2C(=O)NCc2ccc(C#N)cc2Cl)c1` [Example 91, N-(2-chloro-4-cyanobenzyl)-2-{[(5-methylpyridin-3-yl)amino]sulfonyl}benzamide]: at CYP3A4 [1], the IC50 amounted to 0.018 µM. Also, the Ki worked out at 0.058 µM on CYP3A4 [2] (setting [3]) and 0.0172 µM on CYP3A4 [2] (setting [4]).
Consider `Cc1cncc(NS(=O)(=O)c2ccccc2C(=O)NC(C(C)C)C(C)C)c1` [Example 92, N-(1-isopropyl-2-methylpropyl)-2-{[(5-methylpyridin-3-yl)amino]sulfonyl}benzamide], for which, on CYP3A4 [1], the IC50 came out at 0.022 µM. The Ki on CYP3A4 [2] (setting [3]) was found to be 0.0457 µM; at CYP3A4 [2] (setting [4]) it was 0.0175 µM.
On the same counts, the results for `COc1ccccc1CNC(=O)c1ccccc1S(=O)(=O)Nc1cncc(C)c1` [Example 93, N-(2-methoxybenzyl)-2-{[(5-methylpyridin-3-yl)amino]sulfonyl}benzamide] are 0.01 µM, 0.166 µM and 0.0147 µM.
Regarding `Cc1cncc(NS(=O)(=O)c2ccccc2C(=O)NCc2ccc3c(c2)CCO3)c1` [Example 94, N-(2,3-dihydro-1-benzofuran-5-ylmethyl)-2-{[(5-methylpyridin-3-yl)amino]sulfonyl}benzamide], the IC50 at CYP3A4 [1] was 0.016 µM. For the same compound, the Ki on CYP3A4 [2] (setting [3]) was found to be 0.182 µM; at CYP3A4 [2] (setting [4]), 0.0257 µM.
On the same counts, the results for `Cc1cncc(NS(=O)(=O)c2ccccc2C(=O)NC(C)CC(C)C)c1` (stereo not drawn) [Example 95, N-(1,3-dimethylbutyl)-2-{[(5-methylpyridin-3-yl)amino]sulfonyl}benzamide] are 0.008 µM, 0.078 µM and 0.0254 µM.
In the same order, the values of `CC[C@H](C)CNC(=O)c1ccccc1S(=O)(=O)Nc1cncc(OC)c1` [Example 96, 2-{[(5-methoxypyridin-3-yl)amino]sulfonyl}-N-[(2S)-2-methylbutyl]benzamide] are 0.009 µM, 0.124 µM and 0.0223 µM.
In the case of `COc1cncc(NS(=O)(=O)c2ccccc2C(=O)N(Cc2nccn2C)C(C)C)c1` [Example 97, N-isopropyl-2-{[(5-methoxypyridin-3-yl)amino]sulfonyl}-N-[(1-methyl-1H-imidazol-2-yl)methyl]benzamide], on CYP3A4 [1], the IC50 was 0.107 µM. The Ki at CYP3A4 [2] (setting [3]) turned out to be 0.421 µM; at CYP3A4 [2] (setting [4]) it was 0.157 µM.
For the compound `COc1cncc(NS(=O)(=O)c2ccccc2C(=O)N(CCO)C(C)C)c1` [Example 98, N-(2-hydroxyethyl)-N-isopropyl-2-{[(5-methoxypyridin-3-yl)amino]sulfonyl}benzamide], the IC50 at CYP3A4 [1] came out at 0.051 µM. The Ki is 0.506 µM at CYP3A4 [2] (setting [3]) and 0.196 µM at CYP3A4 [2] (setting [4]).
For `COc1cncc(NS(=O)(=O)c2ccccc2C(=O)N(CC(C)O)C(C)C)c1` (stereo not drawn) [Example 99, N-(2-hydroxypropyl)-N-isopropyl-2-{[(5-methoxypyridin-3-yl)amino]sulfonyl}benzamide], the IC50 on CYP3A4 [1] amounted to 0.09 µM. Also, the Ki turned out to be 0.406 µM on CYP3A4 [2] (setting [3]) and 0.223 µM at CYP3A4 [2] (setting [4]).
On the same counts, the results for `CCCN(C(=O)c1ccccc1S(=O)(=O)Nc1cncc(OC)c1)C(C)C` [Example 100, N-isopropyl-2-{[(5-methoxypyridin-3-yl)amino]sulfonyl}-N-propylbenzamide] are 0.014 µM, 0.0883 µM and 0.0357 µM.
On the same counts, the results for `CC[C@@H](C)NC(=O)c1ccccc1S(=O)(=O)Nc1cncc(OC)c1` [Example 101, 2-{[(5-methoxypyridin-3-yl)amino]sulfonyl}-N-[(1R) -1-methylpropyl]benzamide] are 0.026 µM, 0.244 µM and 0.0548 µM.
Regarding `CC[C@H](C)NC(=O)c1ccccc1S(=O)(=O)Nc1cncc(OC)c1` [Example 102, 2-{[(5-methoxypyridin-3-yl)amino]sulfonyl}-N-[(1S) -1-methylpropyl]benzamide], at CYP3A4 [1], the IC50 is 0.055 µM. The Ki on CYP3A4 [2] (setting [3]) was 0.375 µM; at CYP3A4 [2] (setting [4]), 0.056 µM.
In the same order, the values of `CCOc1ccncc1NS(=O)(=O)c1ccccc1C(=O)N(C)Cc1cccc(F)c1` [Example 103, 2-{[(4-ethoxypyridin-3-yl)amino]sulfonyl}-N-(3-fluorobenzyl)-N-methylbenzamide] are 0.021 µM, 0.129 µM and 0.026 µM.
In the same order, the values of `COc1ccncc1NS(=O)(=O)c1ccccc1C(=O)N(C)Cc1cccc(F)c1` [Example 104, N-(3-fluorobenzyl)-2-{[(4-methoxypyridin-3-yl)amino]sulfonyl}-N-methylbenzamide] are 0.035 µM, 0.141 µM and 0.0235 µM.
Take `CCOc1ccncc1NS(=O)(=O)c1ccccc1C(=O)NC(C)(C)CC` [Example 105, N-(1,1-dimethylpropyl)-2-{[(4-ethoxypyridin-3-yl)amino]sulfonyl}benzamide]: the IC50 on CYP3A4 [1] came out at 0.021 µM. Moreover, the Ki on CYP3A4 [2] (setting [3]) was 0.0831 µM; on CYP3A4 [2] (setting [4]) it was 0.0286 µM.
For the compound `CCC(C)(C)NC(=O)c1ccccc1S(=O)(=O)Nc1cnccc1OC` [Example 106, N-(1,1-dimethylpropyl)-2-{[(4-methoxypyridin-3-yl)amino]sulfonyl}benzamide], at CYP3A4 [1], the IC50 was 0.051 µM. The Ki is 0.345 µM at CYP3A4 [2] (setting [3]) and 0.0875 µM on CYP3A4 [2] (setting [4]).
For the compound `CCOc1ccncc1NS(=O)(=O)c1ccccc1C(=O)N[C@@H](C)C(C)C` [Example 107, N-[(1S)-12-dimethylpropyl]-2-{[(4-ethoxypyridin-3-yl)amino]sulfonyl}benzamide], at CYP3A4 [1], the IC50 came out at 0.057 µM. In addition, the Ki was 0.214 µM at CYP3A4 [2] (setting [3]) and 0.044 µM on CYP3A4 [2] (setting [4]).
On the same counts, the results for `COc1ccncc1NS(=O)(=O)c1ccccc1C(=O)N[C@@H](C)C(C)C` [Example 108] are 0.098 µM, 0.506 µM and 0.115 µM.
In the same order, the values of `CCN(C(=O)c1ccccc1S(=O)(=O)Nc1cncc(OC)c1)C(C)C` [Example 109, N-ethyl-N-isopropyl-2-{[(5-methoxypyridin-3-yl)amino]sulfonyl}benzamide] are 0.035 µM, 0.213 µM and 0.0372 µM.
As to `CCOc1ccncc1NS(=O)(=O)c1ccccc1C(=O)N[C@H](C)C(C)C` [Example 110, N-[(1R)-12-dimethylpropyl]-2-{[(4-ethoxypyridin-3-yl)amino]sulfonyl}benzamide], the IC50 on CYP3A4 [1] came to 0.026 µM. Further, the figures for the Ki at CYP3A4 [2] (setting [3]) and on CYP3A4 [2] (setting [4]) were 0.156 µM and 0.0504 µM, respectively.
Turning to `COc1cncc(NS(=O)(=O)c2ccc(OC)cc2C(=O)NCc2ccc(F)cc2)c1` [Example 111, N-(4-fluorobenzyl)-5-methoxy-2-{[(5-methoxypyridin-3-yl)amino]sulfonyl}benzamide], the IC50 at CYP3A4 [1] came to 0.01 µM. In addition, the Ki at CYP3A4 [2] (setting [3]) amounted to 0.0273 µM; on CYP3A4 [2] (setting [4]), 0.0068 µM.
For the compound `CN(c1cccnc1)S(=O)(=O)c1ccccc1C(=O)NCc1ccc(F)c(F)c1` [Example 327, N-(3,4-difluorobenzyl)-2-{[methyl(pyridin-3-yl)amino]sulfonyl}benzamide], the Ki on CYP3A4 [2] (setting [3]) was determined as 0.0864 µM; at CYP3A4 [2] (setting [4]) it was 0.0198 µM.
On to `O=C(NCc1ccc(F)c(F)c1)c1ccccc1S(=O)(=O)Nc1cncc(OCc2ccccc2)c1` [Example 393, 2-({[5-(benzyloxy)pyridin-3-yl]amino}sulfonyl)-N-(3,4-diflorobenzyl)benzamide], for which, at CYP3A4 [1], the IC50 amounted to 0.008 µM.

What is called IC50 is the point on the concentration scale where inhibition reaches its midpoint.
